We go through two compounds from paper PMC4306520 (Journal of Medicinal Chemistry, 2014).

For series [1], the system named is BxPC-3 cells. Kind of series: MTT assay with palmitate supplementation. Type of series: cell-based, human. A general note: Tetrazolium assays rely on reduction of a dye to a coloured formazan, in cell work by metabolically active cells.
The next series deals with FASN. Description: Western blot of FASN expression. Type of series: cell-based, human.
The subject of series [2] is BxPC-3 cells. Description: Intracellular pH. Type of series: cell-based, human. Particulars: BxPC-3, different concentrations, 72 h.
Series [3] has as its system BxPC-3 cells. Description: Extracellular pH. To be noted: BxPC-3, 100 μM, 72 h, data not shown. Type of series: cell-based, human.
The test system of series [4] is PANC-1/FASN and PANC-1/Vec cells. Description: Colony formation survival assay, PANC-1/FASN vs PANC-1/Vec. Type of series: cell-based, human.
In series [5] the test system is BxPC-3 cells. Description: Apoptosis assay. Type of series: cell-based, human.
The subject of series [6] is other Ser hydrolases in PANC-1 cell lysate. Description: Serine hydrolase FP probe displacement assay, other serine hydrolases. Type of series: binding, human. Particulars: 5 μM FP probe.
Series [7] deals with FASN in PANC-1 cell lysate (Homo sapiens, UniProt P49327). Kind of series: Serine hydrolase FP probe displacement assay, FASN. Type of series: binding. To be noted: 5 μM FP probe.
FASN in PANC-1 cell lysate, sequence (P49327 whole entry): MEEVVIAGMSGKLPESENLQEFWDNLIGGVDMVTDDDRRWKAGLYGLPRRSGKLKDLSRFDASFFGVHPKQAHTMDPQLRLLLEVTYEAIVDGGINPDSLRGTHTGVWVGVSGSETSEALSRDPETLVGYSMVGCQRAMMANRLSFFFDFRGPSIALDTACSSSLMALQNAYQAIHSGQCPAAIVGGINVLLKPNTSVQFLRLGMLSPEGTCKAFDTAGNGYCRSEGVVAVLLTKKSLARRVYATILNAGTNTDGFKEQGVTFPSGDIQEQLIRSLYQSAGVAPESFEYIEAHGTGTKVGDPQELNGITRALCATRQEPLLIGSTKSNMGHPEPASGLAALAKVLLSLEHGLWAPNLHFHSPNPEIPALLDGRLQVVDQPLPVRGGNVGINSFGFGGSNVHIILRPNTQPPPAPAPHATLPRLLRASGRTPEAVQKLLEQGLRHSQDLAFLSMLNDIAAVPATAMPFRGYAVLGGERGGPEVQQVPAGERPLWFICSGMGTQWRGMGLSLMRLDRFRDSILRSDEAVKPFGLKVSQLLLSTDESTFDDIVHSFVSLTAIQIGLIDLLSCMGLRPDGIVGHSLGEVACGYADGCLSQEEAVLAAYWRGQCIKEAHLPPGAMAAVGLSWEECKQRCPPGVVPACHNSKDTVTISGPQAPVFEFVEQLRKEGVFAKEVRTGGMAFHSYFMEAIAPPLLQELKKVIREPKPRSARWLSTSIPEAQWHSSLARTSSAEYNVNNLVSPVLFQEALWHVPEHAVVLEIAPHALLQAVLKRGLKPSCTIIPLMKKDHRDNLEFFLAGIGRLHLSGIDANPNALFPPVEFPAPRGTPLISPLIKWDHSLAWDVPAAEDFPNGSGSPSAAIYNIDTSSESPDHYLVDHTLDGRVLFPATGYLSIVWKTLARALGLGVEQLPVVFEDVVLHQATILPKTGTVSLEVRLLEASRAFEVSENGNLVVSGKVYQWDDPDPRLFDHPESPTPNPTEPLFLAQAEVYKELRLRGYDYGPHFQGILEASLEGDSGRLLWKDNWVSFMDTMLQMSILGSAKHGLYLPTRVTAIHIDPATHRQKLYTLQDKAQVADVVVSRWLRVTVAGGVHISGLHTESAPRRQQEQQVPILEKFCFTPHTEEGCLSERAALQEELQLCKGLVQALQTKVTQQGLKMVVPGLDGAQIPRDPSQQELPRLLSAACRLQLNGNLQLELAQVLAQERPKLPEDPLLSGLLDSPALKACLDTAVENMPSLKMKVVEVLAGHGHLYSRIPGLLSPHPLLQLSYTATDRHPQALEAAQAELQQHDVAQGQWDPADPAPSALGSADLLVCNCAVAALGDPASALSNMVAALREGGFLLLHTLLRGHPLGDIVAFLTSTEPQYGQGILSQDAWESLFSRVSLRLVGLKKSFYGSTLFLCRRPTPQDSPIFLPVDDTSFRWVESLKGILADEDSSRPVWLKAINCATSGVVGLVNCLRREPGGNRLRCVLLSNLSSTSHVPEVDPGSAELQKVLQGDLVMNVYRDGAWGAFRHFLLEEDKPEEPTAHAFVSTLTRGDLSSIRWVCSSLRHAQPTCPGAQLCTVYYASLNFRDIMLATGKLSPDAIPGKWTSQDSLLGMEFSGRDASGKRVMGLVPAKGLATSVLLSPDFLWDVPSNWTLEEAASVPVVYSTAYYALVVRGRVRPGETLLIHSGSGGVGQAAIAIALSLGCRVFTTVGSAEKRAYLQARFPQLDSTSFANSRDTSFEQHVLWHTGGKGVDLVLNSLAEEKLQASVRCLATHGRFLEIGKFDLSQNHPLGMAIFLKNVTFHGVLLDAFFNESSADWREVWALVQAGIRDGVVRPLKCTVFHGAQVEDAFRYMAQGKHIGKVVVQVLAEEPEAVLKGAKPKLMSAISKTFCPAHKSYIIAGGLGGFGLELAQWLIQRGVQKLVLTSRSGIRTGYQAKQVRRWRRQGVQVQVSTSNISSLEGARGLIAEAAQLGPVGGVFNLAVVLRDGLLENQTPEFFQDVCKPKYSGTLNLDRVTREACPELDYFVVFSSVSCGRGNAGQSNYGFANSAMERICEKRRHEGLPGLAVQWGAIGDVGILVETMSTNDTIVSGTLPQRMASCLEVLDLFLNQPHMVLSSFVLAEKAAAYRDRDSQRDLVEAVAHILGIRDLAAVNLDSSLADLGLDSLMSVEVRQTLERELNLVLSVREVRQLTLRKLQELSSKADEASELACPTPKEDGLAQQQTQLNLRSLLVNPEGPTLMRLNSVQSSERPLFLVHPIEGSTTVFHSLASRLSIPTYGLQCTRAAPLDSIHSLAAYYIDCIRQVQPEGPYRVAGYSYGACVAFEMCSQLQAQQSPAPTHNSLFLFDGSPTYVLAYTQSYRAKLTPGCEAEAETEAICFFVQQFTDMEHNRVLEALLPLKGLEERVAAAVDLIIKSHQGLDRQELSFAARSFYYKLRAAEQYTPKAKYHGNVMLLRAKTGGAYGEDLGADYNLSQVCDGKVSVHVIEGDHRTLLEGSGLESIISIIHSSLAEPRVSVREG

Consider `CCCCCCCCCCCCCCCC(=O)O` [palmitate], for which the “effect of palmitate alone on cell survival” value with BxPC-3 cells [1] (BxPC-3, 3.75 μM) is listed as “no significant effect on BxPC-3 cell survival”. In the series with FASN (3.75 μM palmitate, Figure 5B), the “effect of palmitate on FASN expression” value is “did not reduce FASN expression”.

Turning to `Cc1c(OCC(F)(F)F)ccnc1C[S+]([O-])c1nc2ccccc2[nH]1` (centres unmarked) [Lansoprazole], in the series with BxPC-3 cells [1] (3.75 μM palmitate), the “effect of palmitate supplementation on lansoprazole cytotoxicity” value was “significantly increased cellular resistance to lansoprazole”. In the series on BxPC-3 cells [2], the “effect on intracellular pH” value was “no significant effect on intracellular pH”. The “effect on extracellular pH” value in the series with BxPC-3 cells [3] was “no change in extracellular pH”. The “sensitivity of PANC-1/FASN cells versus PANC-1/Vec cells” value in series [4] is given as “significantly more sensitive to lansoprazole than the control PANC-1/Vec cells”. Further, the “effect of palmitate supplementation on lansoprazole-induced apoptosis” value in the series on BxPC-3 cells [5] (3.75 μM palmitate) is “reduced lansoprazole-induced apoptosis”. Besides, the “induction of apoptosis (DNA fragments, cleaved PARP-1)” value with BxPC-3 cells [5] (ELISA 72 h, PARP Western blot 24 h) is “dose-dependently caused formation of DNA fragments and cleaved PARP-1”. In the series on FASN (lansoprazole treatment, Figure 4D), the “effect on total FASN level” value is “no effect on the total FASN level”. Also, in series [6], the “effect on binding of FP probe to other Ser hydrolases” value is reported as “no effect on the binding of the FP probe to other Ser hydrolases”. Further, in series [7], the “inhibition of FP serine hydrolase probe labeling of FASN” value was “inhibited labeling of FASN by the FP probe in a dose-dependent manner”.
